Patent US9150555B2, “Amide derivative and use thereof” (Mitsubishi Tanabe Pharma Corporation, priority 2010, dated 2015)
Structures can show the parent of a compound that is named as a salt.

Key:
[1] = test system: IL-17 production of mouse spleen cells stimulated by rm-IL-23; test: Production of IL-17 induced when mouse spleen cells were stimulated by recombinant mouse interleukin-23 (rm-IL-23); type: cell-based; settings: inhibition of IL-17 production, DBA/1J mouse spleen cells, rm-IL-23 1 nmol/L, ELISA
Procedure: Effect on Production of IL-17 Induced when Mouse Spleen Cells were Stimulated by Recombinant Mouse Interleukin-23 (rm-IL-23)
An RPMI1640 (Sigma-Aldrich) was used as a medium, to which penicillin G potassium (50 units/mL; Gibco), streptomycin (50 μg/mL; Gibco) and 2-mercaptoethanol (50 μmol/l; Sigma-Aldrich) were added, and then 10% of fetal calf serum (FCS; Cell Culture Technology) inactivated at 56° C. for 30 minutes was added and used in the Test. The test compound was dissolved in dimethylsulfoxide and diluted with 10% FCS-containing RPMI1640 medium to a desired concentration and used in the test. The spleens were aseptically taken out from 6-7 week-old male DBA/1J mice (Charles River Japan, Inc.) and a single cell suspension of spleen cells was prepared and hemolyzed by hypotonic treatment with a mixture of 0.83% aqueous solution of ammonium chloride and Tris-HCl buffer of pH 7.65 (9:1). A cell suspension prepared by 10% FCS-containing RPMI1640 medium was added to flat-bottomed 96 well microtestplate at 2×10^5 cells/well. Test compounds and rm-IL-23 (R&D systems) were diluted with a medium to 1 to 1,000 nmol/L, and 1 nmol/L of the final concentration respectively, which were added and cultured at 37° C., 5% carbon dioxide and 95% air for 72 hours. After completion of the culture, culture supernatant was sampled and an amount of IL-17 production was determined by ELISA method. After sampling the supernatant, WST-8 (Seikagaku Corporation) was added at 10 μl/well and cultured at 37° C., 5% carbon dioxide and 95% air for 4 hours. Then, absorbance (O.D.: Optical Density) at 450 nm was measured by a microplate reader and the value was adopted as an index of cell survivability. An inhibition rate (%) was calculated according to the following formula on the basis of an average of an amount of IL-17 production and a O.D. values of the well containing a test compound of each concentration.
Based on the dose-response curve obtained by plotting the inhibition rate in the longitudinal axis and concentration in the horizontal axis, the concentration of the compound which inhibits the level to 50% of the value of the control group (IC50; nmol/L) was determined by linear regression analysis. The results was shown in the next Table 1

[2] = target: hERG (Homo sapiens, UniProt Q12809); test: Effects on hERG current (whole-cell clamping); settings: human, HEK 293 cells that express hERG
Chain of hERG (Q12809 whole entry): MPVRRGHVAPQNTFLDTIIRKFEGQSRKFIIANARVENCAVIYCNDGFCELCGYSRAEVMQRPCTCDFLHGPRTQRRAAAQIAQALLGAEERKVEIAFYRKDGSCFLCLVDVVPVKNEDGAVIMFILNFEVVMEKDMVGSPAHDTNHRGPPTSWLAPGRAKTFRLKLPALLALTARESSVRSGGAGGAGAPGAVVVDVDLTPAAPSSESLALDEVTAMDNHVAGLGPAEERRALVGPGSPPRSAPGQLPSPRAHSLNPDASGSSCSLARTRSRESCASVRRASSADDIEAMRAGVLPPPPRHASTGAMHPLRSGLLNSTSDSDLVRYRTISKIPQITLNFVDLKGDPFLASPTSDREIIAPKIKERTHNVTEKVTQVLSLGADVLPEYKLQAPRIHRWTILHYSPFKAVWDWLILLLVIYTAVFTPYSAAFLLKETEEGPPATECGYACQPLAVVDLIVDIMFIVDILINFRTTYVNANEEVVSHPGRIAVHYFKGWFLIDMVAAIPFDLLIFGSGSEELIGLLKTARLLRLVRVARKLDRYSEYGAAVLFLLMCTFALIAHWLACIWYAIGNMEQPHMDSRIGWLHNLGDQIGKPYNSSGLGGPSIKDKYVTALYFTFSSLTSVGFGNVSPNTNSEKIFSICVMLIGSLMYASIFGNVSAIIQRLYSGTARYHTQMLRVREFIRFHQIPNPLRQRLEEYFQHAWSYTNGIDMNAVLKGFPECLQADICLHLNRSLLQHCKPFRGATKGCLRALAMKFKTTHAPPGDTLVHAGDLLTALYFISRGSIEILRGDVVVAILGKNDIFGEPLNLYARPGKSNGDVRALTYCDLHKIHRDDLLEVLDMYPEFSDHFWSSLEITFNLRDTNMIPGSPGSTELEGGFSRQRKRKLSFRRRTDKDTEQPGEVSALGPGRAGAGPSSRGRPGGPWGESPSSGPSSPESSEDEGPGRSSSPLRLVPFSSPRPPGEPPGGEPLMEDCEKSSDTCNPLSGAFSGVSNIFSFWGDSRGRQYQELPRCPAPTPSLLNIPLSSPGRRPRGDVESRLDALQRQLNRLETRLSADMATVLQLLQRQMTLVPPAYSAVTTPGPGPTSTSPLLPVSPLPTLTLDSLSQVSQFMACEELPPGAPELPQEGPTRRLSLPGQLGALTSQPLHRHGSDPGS

[3] = pH 7.4, hERG inhibition rate (%) (1 μM), 1 μM, tail peak current, hERG-expressed HEK 293 cells

IC50 ([1]; Mus musculus, 72 h) [nM]	SMILES	inhibition at 1 µM [2, 3] [%]	IC50 ([1]; 72 hours) [nM]	inhibition at 1 µM ([2]; pH 7.4) [%]
180	Cc1c(C(=O)Nc2ccc(C3CCC(=O)CC3)nc2)cnn1-c1ccc(F)cc1F [Example E21]	8.3	–	–
328	Cc1ccc(-n2ncc(C(=O)Nc3ccc(C4CCC(=O)CC4)nc3)c2C)cc1 [Example E22]	2.7	–	–
149	Cc1cc(NC(=O)c2cnn(-c3ccc(C(F)(F)F)cc3)c2C)cnc1C1=CCOCC1 [Example E30, N-[6-(3,6-Dihydro-2H-pyran-4-yl)-5-methylpyridin-3-yl]-5-methyl-1-[4-(trifluoromethyl)-phenyl]-1H-pyrazole-4-carboxamide]	10.7	–	–
53.4	Cc1c(C(=O)Nc2ccc(C3(C#N)CCC(=O)CC3)nc2)cnn1-c1ccc(C(F)(F)F)cn1 [Example F2, N-[6-(1-Cyano-4-oxocyclohexyl)pyridin-3-yl]-5-methyl-1-[5-(trifluoromethyl)pyridin-2-yl]-1H-pyrazole-4-carboxamide hydrochloride]	22.4	–	–
107	Cc1c(C(=O)Nc2ccc(C3(C#N)CCC(=O)CC3)nc2)cnn1-c1ccc(F)cc1 [Example F6]	6.8	–	–
61.6	Cc1c(C(=O)Nc2ccc(C3(C#N)CCC(=O)CC3)nc2)cnn1-c1ccc(Cl)c(Cl)c1 [Example F8]	15.4	–	–
–	Cc1c(C(=O)Nc2ccc(C3(C#N)CCC(=O)CC3)nc2)cnn1-c1ccc(F)c(F)c1 [Example F10]	–	278	8
321	Cc1c(C(=O)Nc2ccc(C3CCC(=O)CC3)nc2)cnn1-c1ccc(C(C)(C)C)cc1 [Example F26]	8.1	–	–
146	Cc1cc(NC(=O)c2cnn(-c3ccc(C(F)(F)F)cn3)c2C)cnc1C1CCC(=O)CC1 [Example F32]	17.9	–	–
48	Cc1c(C(=O)Nc2ccc([C@H]3CC[C@H](O)CC3)nc2)cnn1-c1ccc(C(C)(C)C)cc1 [Example G4, trans-1-(4-tert-Butylphenyl)-N-[6-(4-hydroxycyclohexyl)pyridin-3-yl]-5-methyl-1H-pyrazole-4-carboxamide]	5.2	–	–
86.6	Cc1cc(NC(=O)c2cnn(-c3ccc(C(F)(F)F)cc3)c2C)cnc1C1=CCC(O)CC1 (centres unmarked) [Example G5, N-[6-(4-Hydroxycyclohex-1-en-1-yl)-5-methylpyridin-3-yl]-5-methyl-1-[4-(trifluoromethyl)-phenyl]-1H-pyrazole-4-carboxamide]	11.7	–	–
56.4	Cc1c(C(=O)Nc2ccc([C@]3(C#N)CC[C@@H](O)CC3)nc2)cnn1-c1ccc(Cl)c(Cl)c1 [Example G8]	1.9	–	–
145	Cc1c(C(=O)Nc2ccc(C3CCC(O)CC3)nc2)cnn1-c1ccc(Cl)cc1 (centres unmarked) [Example G9]	0.8	–	–
118	Cc1c(C(=O)Nc2ccc(C3CCC(O)CC3)nc2)cnn1-c1ccc(C(F)(F)F)cc1 (centres unmarked) [Example G10]	5.1	–	–
84.6	Cc1c(C(=O)Nc2ccc([C@]3(C#N)CC[C@@H](O)CC3)nc2)cnn1-c1ccc(OC(F)(F)F)cc1 [Example G11]	12.2	–	–
260	Cc1c(C(=O)Nc2ccc([C@]3(C#N)CC[C@@H](O)CC3)nc2)cnn1-c1ccc(F)c(F)c1 [Example G12]	6.5	–	–
133	Cc1cc(NC(=O)c2cnn(-c3ncc(C(F)(F)F)cc3F)c2C)cnc1[C@H]1CC[C@H](O)CC1 [Example G29, trans-1-[3-Fluoro-5-(trifluoromethyl)pyridin-2-yl]-N-[6-(1-hydroxycyclohexan-4-yl)-5-methylpyridin-3-yl]-5-methyl-1H-pyrazole-4-carboxamide]	6.7	–	–

IC50 ([1]; Mus musculus, 72 h) [nM]	SMILES	inhibition at 1 µM [2, 3] [%]	IC50 ([1]; 72 hours) [nM]	inhibition at 1 µM ([2]; pH 7.4) [%]
147	COc1cc(C(F)(F)F)cnc1-n1ncc(C(=O)Nc2cnc([C@H]3CC[C@H](O)CC3)c(C)c2)c1C [Example G30]	3.2	–	–
105	Cc1cc(NC(=O)c2cnn(-c3ncc(C(F)(F)F)cc3Cl)c2C)cnc1[C@H]1CC[C@H](O)CC1 [Example G32, trans-1-[3-Chloro-5-(trifluoromethyl)pyridin-2-yl]-N-[6-(1-hydroxycyclohexan-4-yl)-5-methylpyridin-3-yl]-5-methyl-1H-pyrazole-4-carboxamide]	7.9	–	–
67.5	Cc1cc(NC(=O)c2cnn(-c3ccc(C(F)(F)F)cn3)c2C)cnc1[C@H]1CC[C@H](O)CC1 [Example J7, trans-N-[6-(4-Hydroxycyclohexyl)-5-methylpyridin-3-yl]-5-methyl-1-[5-(trifluoromethyl)-pyridin-2-yl]-1H-pyrazole-4-carboxamide]	7.9	–	–
53	Cc1c(C(=O)Nc2ccc([C@H]3CC[C@H](O)CC3)nc2)cnn1-c1ccc(OCCOC(C)(C)C)cc1 [Example J8]	11.3	–	–
149	Cc1cc(NC(=O)c2cnn(-c3ccc(C4CC4)cn3)c2C)cnc1[C@H]1CC[C@H](O)CC1 [Example J12]	10.8	–	–
242	Cc1c(C(=O)Nc2ccc([C@]3(C#N)CC[C@@H](O)CC3)nc2)cnn1-c1ccc(C2CC2)cn1 [Example J13]	10.7	–	–
438	Cc1c(C(=O)Nc2ccc([C@]3(C#N)CC[C@@H](O)CC3)nc2)cnn1-c1ncc(C(F)(F)F)cc1Cl [Example J15]	8.2	–	–
305	Cc1c(C(=O)Nc2ccc([C@]3(C#N)CC[C@@H](O)CC3)nc2)cnn1-c1ncc(C(F)(F)F)cc1F [Example J16]	13.5	–	–
275	Cc1c(C(=O)Nc2ccc([C@]3(C#N)CC[C@@H](O)CC3)nc2)cnn1-c1ncc(C2CC2)cc1F [Example J17]	2.4	–	–
137	Cc1c(C(=O)Nc2ccc([C@]3(C#N)CC[C@@H](O)CC3)nc2)cnn1-c1ccc(C(C)C)cc1 [Example J18]	17.8	–	–
132	Cc1c(C(=O)Nc2ccc([C@]3(C#N)CC[C@@H](O)CC3)nc2)cnn1-c1ccc(C2CC2)cc1 [Example J19]	18.5	–	–
90	CCc1ccc(-n2ncc(C(=O)Nc3ccc([C@]4(C#N)CC[C@@H](O)CC4)nc3)c2C)cc1 [Example J20]	18.1	–	–
127	Cc1c(C(=O)Nc2ccc(C3(C(=O)O)CCCCC3)nc2)cnn1-c1ccc(Cl)cc1 [Example K4, 1-[5-({[1-(4-Chlorophenyl)-5-methyl-1H-pyrazol-4-yl]carbonyl}amino)pyridin-2-yl]-cyclohexanecarboxylic acid]	17.2	–	–
148	Cc1c(C(=O)Nc2ccc(C3(C#N)CCC(O)CC3)nc2)cnn1-c1ccc(C(F)(F)F)cn1 (centres unmarked) [Example K6, N-[6-(r-1-Cyano-c-4-hydroxycyclohexyl)pyridin-3-yl]-5-methyl-1-[5-(trifluoromethyl)pyridin-2-yl]-1H-pyrazole-4-carboxamide]	40	–	–
148	Cc1ccc(-n2ncc(C(=O)Nc3ccc([C@]4(C#N)CC[C@@H](OCCO)CC4)nc3)c2C)cc1 [Example K19, N-{6-[r-1-cyano-c-4-(2-hydroxyethoxy)cyclohexyl]pyridin-3-yl}-5-methyl-1-(4-methylphenyl)-1H-pyrazole-4-carboxamide]	2.4	–	–
376	CNC1CC=C(c2ncc(NC(=O)c3cnn(-c4ccc(C(F)(F)F)cn4)c3C)cc2C)CC1 (centres unmarked) [Example K26, 5-Methyl-N-[5-methyl-6-(4-methylaminocyclohex-1-en-1-yl)pyridin-3-yl]-1-[5-(trifluoromethyl)pyridin-2-yl]-1H-pyrazole-4-carboxamide]	14.3	–	–
242	CC(=O)N(C)C1CC=C(c2ncc(NC(=O)c3cnn(-c4ccc(C(F)(F)F)cn4)c3C)cc2C)CC1 (centres unmarked) [Example K27, N-{6-[4-(N-Acetyl-N-methylamino)cyclohex-1-en-1-yl]-5-methylpyridin-3-yl}-5-methyl-1-[5-(trifluoromethyl)pyridin-2-yl]-1H-pyrazole-4-carboxamide]	9.7	–	–
